# pEC50: −log10 of the molar value.
# Biological target: T1, Toll-like receptor 4 (TLR4) (Homo sapiens, UniProt O00206)
# T1 construct: HA-TLR4-NLuc and HA-TLR4-Venus (C-terminal tags); with MD2 and CD14 (co-expressed; not required)
# Experiment: BRET TLR4-TLR4 proximity assay (iTLR4) in transfected HEK293 cells
# Type: cell-based
# T1 sequence (O00206 24-839): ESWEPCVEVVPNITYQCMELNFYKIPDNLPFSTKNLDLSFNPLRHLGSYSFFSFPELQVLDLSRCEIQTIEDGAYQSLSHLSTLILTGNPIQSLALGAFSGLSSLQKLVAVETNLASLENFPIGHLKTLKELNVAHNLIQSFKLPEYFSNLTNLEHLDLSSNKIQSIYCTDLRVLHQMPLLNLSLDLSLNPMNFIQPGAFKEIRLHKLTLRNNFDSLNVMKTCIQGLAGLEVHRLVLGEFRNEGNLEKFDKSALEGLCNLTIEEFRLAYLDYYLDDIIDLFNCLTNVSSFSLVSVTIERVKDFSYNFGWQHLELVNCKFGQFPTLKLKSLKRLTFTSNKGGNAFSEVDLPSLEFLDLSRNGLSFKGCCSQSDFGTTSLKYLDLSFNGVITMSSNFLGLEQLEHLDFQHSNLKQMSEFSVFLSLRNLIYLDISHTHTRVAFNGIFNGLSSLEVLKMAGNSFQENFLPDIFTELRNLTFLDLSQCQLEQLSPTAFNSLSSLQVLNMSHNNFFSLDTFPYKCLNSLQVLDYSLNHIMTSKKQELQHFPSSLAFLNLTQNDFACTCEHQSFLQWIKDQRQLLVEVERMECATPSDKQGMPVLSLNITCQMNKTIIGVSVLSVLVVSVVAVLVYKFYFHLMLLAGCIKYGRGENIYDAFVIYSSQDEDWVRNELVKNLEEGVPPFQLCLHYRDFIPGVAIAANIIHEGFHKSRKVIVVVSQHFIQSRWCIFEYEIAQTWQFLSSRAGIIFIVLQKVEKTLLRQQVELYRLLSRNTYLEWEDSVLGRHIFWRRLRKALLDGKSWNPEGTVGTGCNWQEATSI
# T1 sequence (Q9Y6Y9 19-160 partner): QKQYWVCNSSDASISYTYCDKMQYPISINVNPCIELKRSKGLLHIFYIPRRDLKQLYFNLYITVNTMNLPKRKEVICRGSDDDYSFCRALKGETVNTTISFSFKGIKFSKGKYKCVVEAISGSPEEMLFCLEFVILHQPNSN
# T1 sequence (P08571 20-345 partner): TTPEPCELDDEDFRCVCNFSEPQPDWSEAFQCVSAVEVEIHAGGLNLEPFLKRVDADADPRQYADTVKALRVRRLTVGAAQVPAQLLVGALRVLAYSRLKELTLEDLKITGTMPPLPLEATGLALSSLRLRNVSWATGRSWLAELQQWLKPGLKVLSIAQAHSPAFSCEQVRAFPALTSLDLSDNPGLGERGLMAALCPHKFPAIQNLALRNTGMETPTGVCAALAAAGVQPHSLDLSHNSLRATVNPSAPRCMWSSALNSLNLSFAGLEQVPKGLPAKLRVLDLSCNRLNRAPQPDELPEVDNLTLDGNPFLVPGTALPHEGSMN
row,Compound,pEC50
1,C=CCN1CC[C@@]23c4c5ccc(O)c4O[C@@H]2C(=O)CC[C@]3(O)[C@@H]1C5 [(+)-naloxone],5.38
2,C=CCN1CC[C@]23c4c5ccc(O)c4O[C@H]2C(=O)CC[C@@]3(O)[C@H]1C5 [(-)-naloxone],5.52
